According to patent US20050165102A1, “Compositions and dosage forms for enhanced absorption” (priority 2003, published 2005):
Structures can show the parent of a compound that is named as a salt. Where two headings read alike, the source gives them in different places.

Legend:
[1] = rat, in vivo, po, 40 mg/kg
[2] = for Bioavailability: relative to iv gabapentin; for gabapentin plasma concentration rat1: 0 h
[3] = Flushed ligated colonic model in rats (gabapentin); settings: for gabapentin plasma concentration Rat1: colonic intubation 10 mg/rat
Source text: The colon was flushed of fecal materials.
Each segment was observed macroscopically for irritation and any abnormality noted.

[4] = iv 1 mg/rat, 0 h

CN(C)C(=N)N=C(N)N [Metformin HCl, metformin hydrochloride, reference compound]
time of plasma concentration maximum after treatment [1]: about 1 hour

CCCCCCCCCCCCOS(=O)(=O)O.NCC1(CC(=O)O)CCCCC1 [Gabapentin lauryl sulfate]
percent bioavailability versus neat drug ([2]; duodenal, dosage of 20 mg (FIG. 19C)): higher bioavailability than did the neat drug

CCCCCCCCCCCC(=O)O.CN(C)C(=N)N=C(N)N [Metformin laurate]
time of plasma concentration maximum after treatment [1]: about 1 hour

NCC1(CC(=O)O)CCCCC1 [Gabapentin, 1-(aminomethyl)cyclohexaneacetic acid, reference compound]
gabapentin plasma concentration Rat1 ([3]; 0 h): 0 ng/mL
gabapentin plasma concentration Rat1 ([3]; 1 h): 189 ng/mL
Bioavailability ([3]; colonic, percent of intravenous administration): 4.9%
macroscopic observation of colonic mucosa for irritation ([3]; excised colonic segments after 4 hour test period): no histopathological change visible to the naked eye
gabapentin plasma concentration Rat1 [4]: 0 ng/mL
Bioavailability ([2]; duodenal 5 mg/rat (14.8 / 14.0 mg/kg)): 62.5 ± 9.4%
Bioavailability ([2]; duodenal 10 mg/rat (30.6 / 29.1 mg/kg)): 44.2 ± 10.1%
Bioavailability ([2]; duodenal 20 mg/rat (59.8 / 58.1 mg/kg)): 26.2 ± 8.2%
gabapentin plasma concentration rat1 ([2]; duodenal dose 5 mg/rat): 0 ng/mL
gabapentin plasma concentration rat1 ([2]; duodenal dose 10 mg/rat): 0 ng/mL
gabapentin plasma concentration rat1 ([2]; duodenal dose 20 mg/rat): 0 ng/mL
